Experimental data taken from patent US20240125807A1, “METHOD FOR MEASURING RELATIVE fu RATIO BY DYNAMIC [sequence]” (Chugai Seiyaku Kabushiki Kaisha, priority 2020, published 2024).
pKi: −log10 of the molar value. Read-outs that look alike come from different tables or passages of the source.

Key:
[1] = in vitro; conditions: human, serum
[2] = in vitro; conditions: rat
[3] = cited from earlier work
[4] = biological target: T1, CYP3A4 (Homo sapiens, UniProt P08684); conditions: read-out: Km value; midazolam as CYP3A4 substrate, suggested in the literature; cited from earlier work
[5] = serum, 24 h, 0.2 μmol/L
[6] = serum, 24 h, 0.2 μmol/L; remark: listed apart in the source
[7] = biological target: T1, CYP3A4; assay: Inhibition constant Ki in human hepatic microsome with midazolam as CYP3A4 probe substrate
Method: For predicting the DDI risk, midazolam that is a CYP3A4 substrate was used as a probe compound to determine an inhibition constant Ki value of each compound in human hepatic microsome.
To 5 μL of a solution of midazolam dissolved therein at 50 mmol/L was added 70 μL of a 50% acetonitrile solution to obtain 75 μL in total of a solution. […] To 25 mg of commercially available β-NADPH (Wako Pure Chemical Industries, Ltd.) was added 3000 μL of a phosphate buffer at 0.1 mol/L to obtain a NADPH solution (10 mmol/L). The prepared solutions were mixed in the following order to obtain an inhibition reaction solution (100 μL in total), and the solution was reacted for 5 minutes with stirring at 37° C. where the time immediately after addition of the NADPH solution was defined as 0 minute after the start of the reaction.
The thus-obtained sample was used as a LCMS measurement solution. Two sets of the LCMS measurement solution were prepared, with one intended for quantitative determination of 1-hydroxymidazolam generated by metabolic reaction and the other intended for measurement of the actual concentration of a compound to be measured (inhibitor). Each set was used for LCMS quantitative analysis.
Therefore, the determined IC50 was directly used as Ki value.

[8] = fu ratio (serum/microsome) using fu value (microsome) and fu value (serum)=0.01 based on the FDA guidance, Reference Examples 21 to 27; format: in vitro ADME, human; conditions: fu value (microsome) of Reference Examples 14 to 20 and fu value (serum)=0.01 per FDA guidance (Reference Examples 21 to 27)
[9] = biological target: T1, CYP3A4; design: unit not given beside the values; conditions: in vivo, cited from earlier work
[10] = fu ratio (serum/microsome) from fu values by static analysis (versus buffer), Reference Examples 14 to 20; format: in vitro ADME, human; conditions: from fu values of Reference Examples 14 to 20 (static analysis versus buffer)
[11] = fu value (microsome) by static analysis (versus buffer), Reference Examples 14 to 20; format: in vitro ADME; conditions: human, human hepatic microsomes 0.1 mg/mL dialysed against buffer, microsome 0.1 mg/mL
[12] = Relative fu ratio rat/human, equilibrium dialysis serum versus serum, dynamic analysis; conditions: Examples 4 to 13: 10% serum, analyte 0.2 μmol/L, 0.5-24 h
[13] = rat and human, 24 h, 0.2 μmol/L
[14] = fu by static analysis (versus buffer), rat serum (Reference Example); conditions: Reference Examples 4 to 13: 10% serum versus buffer, 24 h
[15] = Relative fu ratio (serum/microsome), human serum and human hepatic microsome, dynamic analysis; conditions: human serum fu corrected to 1/1, human hepatic microsome 0.1 mg/mL
[16] = fu by static analysis (versus buffer), human serum (Reference Example); conditions: 24 h, 10% serum fu corrected to serum concentration 1/1

T1 sequence (P08684 whole entry): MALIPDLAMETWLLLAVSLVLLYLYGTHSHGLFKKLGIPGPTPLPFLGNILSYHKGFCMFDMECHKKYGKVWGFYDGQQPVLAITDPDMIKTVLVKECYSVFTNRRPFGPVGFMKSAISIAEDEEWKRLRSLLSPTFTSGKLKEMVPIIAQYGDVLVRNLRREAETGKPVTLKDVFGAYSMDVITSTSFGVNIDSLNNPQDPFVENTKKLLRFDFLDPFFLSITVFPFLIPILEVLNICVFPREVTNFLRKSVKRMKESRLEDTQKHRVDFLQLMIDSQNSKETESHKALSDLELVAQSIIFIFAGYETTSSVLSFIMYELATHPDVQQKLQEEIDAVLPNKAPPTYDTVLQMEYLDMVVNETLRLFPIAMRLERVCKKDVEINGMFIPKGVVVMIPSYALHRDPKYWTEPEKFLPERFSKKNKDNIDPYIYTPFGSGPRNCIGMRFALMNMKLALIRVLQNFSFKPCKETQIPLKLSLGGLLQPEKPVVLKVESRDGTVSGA

In the case of `C[C@]12C=CC(=O)N[C@@H]1CC[C@@H]1[C@@H]2CC[C@]2(C)[C@@H](C(=O)Nc3cc(C(F)(F)F)ccc3C(F)(F)F)CC[C@@H]12` [Dutasteride], the fraction unbound at 24 h, 0.2 μmol/L [1] was 0.006 and the fraction unbound at 24 h, 0.2 μmol/L ([2]; serum) was 0.009.

In the case of `O=C1CCc2ccc(OCCCCN3CCN(c4cccc(Cl)c4Cl)CC3)cc2N1` [Aripiprazole], the Cmax ([3]; Dose 15 mg) is given as 242 ng/mL, the fraction unbound ([1]; Human (fu value)) is given as 0.002 and the fraction unbound ([1]; Human serum (serum concentration: 1/1) (fu value)) is given as 0.0021. It also gave a fraction unbound ([2]; serum) of 0.003.

For `Cc1ncc2n1-c1ccc(Cl)cc1C(c1ccccc1F)=NC2` [midazolam], the Km [4] is given as 2.06 µM.

In the case of `O=C(NC1CCN(CCCCC2(C(=O)NCC(F)(F)F)c3ccccc3-c3ccccc32)CC1)c1ccccc1-c1ccc(C(F)(F)F)cc1` [Lomitapide], the “Human (fu value)” value [5] was 0.002 and the fraction unbound at 24 h, 0.2 μmol/L ([2]; serum) was 0.006.

In the case of `COC(=O)N[C@H](C(=O)N1CCC[C@H]1c1nc(-c2ccc3c(c2)O[C@@H](c2ccccc2)n2c-3cc3cc(-c4c[nH]c([C@@H]5CCCN5C(=O)[C@@H](NC(=O)OC)C(C)C)n4)ccc32)c[nH]1)C(C)C` [Elbasvir], the “Rat (fu value)” value [6] was 0.001 and the “Human (fu value)” value [5] was 0.001.

In the case of `O=C(O)c1ccc(-n2nc(-c3ccccc3O)nc2-c2ccccc2O)cc1` [Deferasirox], the Cmax ([3]; Dose 210 mg) is listed as 40327 ng/mL, the pKi [7] is listed as no more than 4.31 and the Ki value ([7]; microsomes) is listed as “maximum addition concentration”. For the same molecule, the “fu ratio (serum/microsome)” value [8] was 0.0099, the “AUCR (observed value)” value ([9]; 210 mg) was 0.90 and the “Human (fu value)” value [5] was 0.005. The fraction unbound at 24 h, 0.2 μmol/L ([2]; serum) was 0.02 and the “fu ratio (serum/microsome)” value [10] was 0.0046.

In the case of `c1ccc(Cc2nn[nH]n2)c(COc2ccc(OCc3ccc4ccccc4n3)cc2)c1` [RG12525], the Cmax ([3]; Dose 100 mg) is given as 1482 ng/mL, the Cmax ([3]; Dose 600 mg) is given as 8186 ng/mL and the pKi [7] is given as 5.83. The “fu ratio (serum/microsome)” value [8] was 0.0129, the “AUCR (observed value)” value ([9]; 100 mg) was 1.09 and the “AUCR (observed value)” value ([9]; 600 mg) was 1.01. The fraction unbound at 24 h, 1 μmol/L [11] was 0.77 and the “fu ratio (serum/microsome)” value [10] was 0.0005.

`COc1ccc2c(c1)[C@@H]1C[C@]1(C(=O)N1[C@@H]3CC[C@H]1CN(C)C3)Cn1c-2c(C2CCCCC2)c2ccc(C(=O)NS(=O)(=O)N(C)C)cc21` [Beclabuvir] showed a fraction unbound at 24 h, 0.2 μmol/L [1] of 0.007 and a fraction unbound at 24 h, 0.2 μmol/L ([2]; serum) of 0.008.

For `CC(=O)N1CCN(c2ccc(OCC3COC(Cn4ccnc4)(c4ccc(Cl)cc4Cl)O3)cc2)CC1` (stereo not shown) [Ketoconazole], the Cmax ([3]; Dose 200 mg) is given as 4681.36 ng/mL and the Cmax ([3]; Dose 400 mg) is given as 5877.28 ng/mL.

In the case of `CCC(C)n1ncn(-c2ccc(N3CCN(c4ccc(OCC5COC(Cn6cncn6)(c6ccc(Cl)cc6Cl)O5)cc4)CC3)cc2)c1=O` (stereo not shown) [Itraconazole], the Cmax ([3]; Dose 50 mg) is listed as 14.11 ng/mL, the Cmax ([3]; Dose 200 mg) is listed as 163.93 ng/mL and the Cmax ([3]; Dose 400 mg) is listed as 317.52 ng/mL. For the same molecule, the “AUCR (observed value)” value ([9]; 50 mg) was 1.91, the “AUCR (observed value)” value ([9]; 200 mg) was 5.05 and the “AUCR (observed value)” value ([9]; 400 mg) was 5.07. It also gave a fraction unbound at 24 h, 1 μmol/L [11] of 0.77.

In the case of `CNC(=O)c1ccc(N2C(=S)N(c3cnc(C#N)c(C(F)(F)F)c3)C(=O)C23CCC3)cc1F` [Apalutamide], the “fu ratio (rat/human)” value [12] was 2.50, the “fu ratio (rat/human)” value [13] was 3.36 and the fraction unbound at 24 h, 0.2 μmol/L [1] was 0.03. For the same molecule, the fraction unbound at 24 h, 0.2 μmol/L [2] was 0.104 and the “fu ratio (rat/human)” value [14] was 2.30.

In the case of `C=C[C@@H]1C[C@]1(NC(=O)[C@@H]1C[C@@H](Oc2ncc(OC)c3ccc(Cl)cc23)CN1C(=O)[C@@H](NC(=O)OC(C)(C)C)C(C)(C)C)C(=O)NS(=O)(=O)C1CC1` [Asunaprevir], the fraction unbound at 24 h, 0.2 μmol/L [1] was 0.005 and the fraction unbound at 24 h, 0.2 μmol/L [2] was 0.008.

With `C=CC(=O)N1CCC[C@@H](n2nc(-c3ccc(Oc4ccccc4)cc3)c3c(N)ncnc32)C1` [Ibrutinib] the fraction unbound at 24 h, 0.2 μmol/L [1] was 0.019 and the fraction unbound at 24 h, 0.2 μmol/L ([2]; serum) was 0.007.

In the case of `CS(=O)(=O)CCNCc1ccc(-c2ccc3ncnc(Nc4ccc(OCc5cccc(F)c5)c(Cl)c4)c3c2)o1` [Lapatinib], the fraction unbound at 24 h, 1 μmol/L [11] was 0.05.

In the case of `CCCSc1nc(N[C@@H]2C[C@H]2c2ccc(F)c(F)c2)c2nnn([C@@H]3C[C@H](OCCO)[C@@H](O)[C@H]3O)c2n1` [Tikaglera], the Cmax ([3]; Dose 90 mg) is listed as 403 ng/mL, the “fu ratio (scrum/microsome)” value [15] is listed as 0.0103 and the Ki value ([7]; human hepatic microsome, midazolam 0.33 μmol/L, IC50 used as Ki) is listed as “maximum addition concentration”. For the same molecule, the pKi ([7]; read-out: Ki value, human hepatic microsome, midazolam 0.33 μmol/L as CYP3A4 substrate, IC50 directly used as Ki) was no more than 4.06, the “Human serum (serum concentration: 1/1) (fu value)” value [16] was 0.0032 and the “fu ratio (serum/microsome)” value [8] was 0.0207. The “fu ratio (serum/microsome)” value [10] was 0.0065.
